A short description of the data set: In vivo pharmacokinetic study, IP in mice. The settings on record: mouse, intraperitoneal 10 mg/kg. The method, then: In Vivo Pharmacokinetic Study. Compound(s) were formulated in 10% Tween80 in sterile water at the concentration of 3.33 mg/mL and administered IP to male C57 BL6 mice weighing 20 to 25 g (Harlan, Indianapolis, Ind.) at the dose of 10 mg/kg. The blood (cardiac puncture) and brain were collected at 0.5, 1, 3, and 6 hr. Animals were euthanized and decapitated, and the brains were removed, thoroughly washed in cold phosphate-buffered saline, and immediately frozen on dry ice. Plasma was separated by centrifugation (4000 rcf, 4° C.) and stored at −80° C. until analysis. On the day of analysis, frozen whole-[…] brains were weighed and diluted with 1:3 (w/w) parts of 70:30 isopropanol:water. The mixture was then subjected to mechanical homogenation employing a Mini-Beadbeater™ and 1.0 mm Zirconia/Silica Beads (BioSpec Products) followed by centrifugation. The sample extraction of plasma (20 μL) or brain homogenate (20 μL) was performed by a method based on protein precipitation using three volumes of ice-cold acetonitrile containing an internal standard (50 ng/mL carbamazepine). The samples were centrifuged (3000 rcf, 5 min) and supernatants transferred and diluted 1:1 (supernatant: water) into a new 96 well plate, which was then sealed in preparation for LC/MS/MS analysis.
LC/MS/MS Bioanalysis of Samples from In Vivo Studies. In vivo samples were analyzed via electrospray ionization (ESI) on an AB Sciex QTrap 5500 (Foster City, Calif.) triple-quadrupole linear ion trap instrument that was coupled with Shimadzu LC-20AD pumps (Columbia, Md.) and a Leap Technologies CTC PAL auto-sampler (Carrboro, N.C.). Analytes were separated by gradient elution using a Fortis C18 2.1×50 mm, 3 μm column (Fortis Technologies Ltd, Cheshire, UK) at 40° C. HPLC mobile phase A was 0.1% formic acid in water (pH unadjusted), mobile phase B was 0.1% formic acid in acetonitrile (pH unadjusted). […] The total run time was 2.5 min and the HPLC flow rate was 0.5 mL/min. The source temperature was set at 500° C. and mass spectral analyses were performed using multiple reaction monitoring (MRM), with transitions specific for each compound utilizing a Turbo-Ionspray® source in positive ionization mode (5.0 kV spray voltage). The calibration curves were constructed, and linear response was obtained in the range of 0.5 to 5,000 ng/mL, by spiking known amounts of […] in blank brain homogenate or plasma. All data were analyzed using AB Sciex Analyst software v1.5.1. The final PK parameters were calculated by noncompartmental analysis using Phoenix (version 6.2) (Pharsight Inc., Mountain View, Calif.).

Molecules are shown by their SMILES. Like-named read-outs stand apart in the source and are kept apart here.

As to `Cc1cc(NC(=O)Nc2ccc(F)c(F)c2)n(-c2ccccc2)n1` [VU0456810, 1-(3,4-difluorophenyl)-3-(3-methyl-1-phenyl-1H-pyrazol-5-yl)urea], for the setting “male, C57 BL6, brain/plasma, ip, 30 min after administration”, the Kp (commonly the ratio of the level in a tissue or fluid to that in plasma or blood) at 0.5 h is 0.2. Besides, the concentration at 30 min (male, C57 BL6, brain, 30 min after administration, read-out: Brain concentration) amounted to 500 nM; the concentration at 30 min (male, C57 BL6, plasma, 30 min after administration, read-out: Plasma concentration) was determined as 2300 nM; the concentration at 30 min (30 min after administration, read-out: Brain concentration) turned out to be 500 nM. For the same compound, where the note is “male, C57 BL6, plasma, ip”, the half-life (in general, the time in which the quantity being followed falls by half) is 20 min. Further, the Plasma concentration (30 min after administration) is 2300 nM.
